Measurements as given in the NIST ThermoML archive (doi:10.1016/j.jct.2003.08.017).

Columns and labels:
[1] = Molar enthalpy of transition or fusion; settings: Crystal
[2] = molar heat capacity at constant pressure; settings: 101.33 kPa, Small (less than 1 g) adiabatic calorimetry
[3] = Crystal

OCC1c2ccccc2-c2ccccc21 [9-fluorenemethanol]
Settings	Molar enthalpy of transition or fusion [kcal/mol]	Triple point temperature [K]
[1]	6.279	–
[3]	–	376.57

[2]
Settings	molar heat capacity at constant pressure [J/K/mol]
78.5 K, Crystal	74.59
79.9 K, Crystal	75.63
82.26 K, Crystal	77.22
84.64 K, Crystal	78.94
85.94 K, Crystal	79.76
87.24 K, Crystal	80.69
88.54 K, Crystal	81.69
89.84 K, Crystal	82.71
91.05 K, Crystal	83.42
92.27 K, Crystal	84.33
93.81 K, Crystal	85.44
95.68 K, Crystal	86.83
97.47 K, Crystal	88.34
99.25 K, Crystal	89.58
101.04 K, Crystal	90.8
102.74 K, Crystal	92
104.45 K, Crystal	93.28
106.15 K, Crystal	94.37
107.78 K, Crystal	95.55
110.05 K, Crystal	97.38
112.81 K, Crystal	99.34
115.57 K, Crystal	101.09
118.25 K, Crystal	103.07
120.84 K, Crystal	105.05
123.44 K, Crystal	107.15
126.04 K, Crystal	109.39
128.55 K, Crystal	111.1
131.07 K, Crystal	112.95
133.5 K, Crystal	114.39
135.94 K, Crystal	116.5
138.38 K, Crystal	118.22
140.73 K, Crystal	120.24
143.08 K, Crystal	121.92
145.44 K, Crystal	123.49
147.79 K, Crystal	125.56
150.06 K, Crystal	127.26
152.34 K, Crystal	129.25
154.61 K, Crystal	130.86
156.8 K, Crystal	132.44
158.99 K, Crystal	134.22
161.18 K, Crystal	136.08
163.38 K, Crystal	137.61
165.57 K, Crystal	139.23
167.68 K, Crystal	141.01
169.87 K, Crystal	142.68
171.98 K, Crystal	144.26
174.09 K, Crystal	145.97
176.12 K, Crystal	147.81
178.23 K, Crystal	149.54
180.26 K, Crystal	151.27
182.29 K, Crystal	153.26
184.32 K, Crystal	155.07
186.35 K, Crystal	156.65
188.38 K, Crystal	158.43
190.32 K, Crystal	160.03
192.27 K, Crystal	161.75
194.22 K, Crystal	163.44
196.17 K, Crystal	165.02
198.12 K, Crystal	167.02
200.06 K, Crystal	168.41
201.93 K, Crystal	170.12
203.88 K, Crystal	172.09
205.75 K, Crystal	173.99
207.69 K, Crystal	175.77
209.56 K, Crystal	177.8
211.43 K, Crystal	179.56
213.21 K, Crystal	181.31
215.08 K, Crystal	183.23
216.95 K, Crystal	185.04
218.73 K, Crystal	186.49
220.52 K, Crystal	188.39
222.38 K, Crystal	190.43
224.17 K, Crystal	192.38
225.96 K, Crystal	194.23
227.66 K, Crystal	195.8
229.45 K, Crystal	197.65
231.15 K, Crystal	199.09
232.86 K, Crystal	201.07
234.64 K, Crystal	202.79
236.35 K, Crystal	203.84
238.05 K, Crystal	205.56
239.75 K, Crystal	207.12
241.46 K, Crystal	208.72
243.08 K, Crystal	210.03
244.71 K, Crystal	211.22
246.41 K, Crystal	212.28
248.12 K, Crystal	213.72
249.74 K, Crystal	215.05
251.36 K, Crystal	216.5
253.07 K, Crystal	218.21
254.69 K, Crystal	219.66
256.31 K, Crystal	220.83
257.94 K, Crystal	221.75
259.56 K, Crystal	223.22
261.18 K, Crystal	224.27
262.73 K, Crystal	225.73
264.35 K, Crystal	226.9
265.97 K, Crystal	228.35
267.6 K, Crystal	229.68
269.14 K, Crystal	231.11
270.68 K, Crystal	232.43
272.14 K, Crystal	233.76
273.68 K, Crystal	235.07
276.77 K, Crystal	237.44
280.83 K, Crystal	240.46
284.15 K, Crystal	243.34
287.89 K, Crystal	246.4
291.22 K, Crystal	248.63
294.46 K, Crystal	252.05
297.55 K, Crystal	255.07
300.71 K, Crystal	258.24
303.8 K, Crystal	261.53
306.96 K, Crystal	265.22
310.05 K, Crystal	268.37
313.05 K, Crystal	272.08
316.13 K, Crystal	275.5
319.22 K, Crystal	279.32
322.22 K, Crystal	283
325.23 K, Crystal	287.49
328.23 K, Crystal	292.62
331.15 K, Crystal	297.89
334.07 K, Crystal	303.26
337 K, Crystal	308.39
339.84 K, Crystal	314.22
342.68 K, Crystal	320.06
345.44 K, Crystal	326.47
348.03 K, Crystal	332.27
350.71 K, Crystal	338.6
353.31 K, Crystal	344.72
355.99 K, Crystal	351.11
358.59 K, Crystal	357.3
360.94 K, Crystal	363.05
378.41 K, Liquid	50.2
379.63 K, Liquid	50.76
381.41 K, Liquid	51.75
383.59 K, Liquid	52.7
385.71 K, Liquid	53.72
387.58 K, Liquid	54.67
389.69 K, Liquid	55.38
